The target in test [1] is Beta-lactamase (Pseudomonas aeruginosa (strain ATCC 15692 / PAO1 / 1C / PRS 101 / LMG12228)) (UniProt P24735). As to the kind of experiment: Inhibition of Pseudomonas aeruginosa beta-lactamase AmpC at 2 uM.
Test [2] shares this target. Kind of test: Inhibition of Pseudomonas aeruginosa beta-lactamase AmpC at 0.8 uM.
Test [3] can be described thus: Inhibition of Pseudomonas aeruginosa beta-lactamase TEM-1.
A further test has as its target Beta-lactamase SHV-5 (Klebsiella pneumoniae, UniProt P0A3M1). As to the kind of experiment: Inhibition of Klebsiella pneumoniae beta-lactamase SHV5.
Test [4] addresses Beta-lactamase (Enterobacter cloacae, UniProt P05364). Kind of test: Inhibition of Enterobacter colacae P99 Beta-lactamase.
Test [5] has as its target Beta-lactamase (Pseudomonas aeruginosa (strain ATCC 15692 / PAO1 / 1C / PRS 101 / LMG12228), UniProt P24735). Kind of test: Inhibition of Pseudomonas aeruginosa beta-lactamase AmpC.
The target of test [6] is Beta-lactamase (Acinetobacter baumannii, UniProt Q8RLA6). As to the kind of experiment: Inhibition of Acinetobacter baumannii beta-lactamase OXA40.
Sequence of Beta-lactamase (Acinetobacter baumannii, UniProt Q8RLA6) (Q8RLA6 whole entry): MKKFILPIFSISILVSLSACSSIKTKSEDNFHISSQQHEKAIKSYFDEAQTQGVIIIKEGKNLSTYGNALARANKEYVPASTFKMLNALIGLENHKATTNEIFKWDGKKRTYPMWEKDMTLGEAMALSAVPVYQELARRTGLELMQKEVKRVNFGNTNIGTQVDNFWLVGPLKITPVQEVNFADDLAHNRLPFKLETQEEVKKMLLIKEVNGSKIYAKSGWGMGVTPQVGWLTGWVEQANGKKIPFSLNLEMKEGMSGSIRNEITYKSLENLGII

Sequence of Beta-lactamase (Pseudomonas aeruginosa (strain ATCC 15692 / PAO1 / 1C / PRS 101 / LMG12228)) (P24735 27-397 limits assumed): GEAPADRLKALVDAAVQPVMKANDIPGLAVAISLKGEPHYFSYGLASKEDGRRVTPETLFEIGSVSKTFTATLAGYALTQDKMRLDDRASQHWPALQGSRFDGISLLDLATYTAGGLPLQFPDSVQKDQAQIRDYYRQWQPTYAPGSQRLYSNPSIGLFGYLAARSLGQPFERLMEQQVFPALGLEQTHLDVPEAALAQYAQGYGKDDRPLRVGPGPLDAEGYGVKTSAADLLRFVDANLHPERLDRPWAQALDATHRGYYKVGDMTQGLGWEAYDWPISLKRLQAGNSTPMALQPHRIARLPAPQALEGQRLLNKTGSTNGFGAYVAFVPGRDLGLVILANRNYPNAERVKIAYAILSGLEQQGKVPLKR
Sequence of Beta-lactamase SHV-5 (P0A3M1 whole entry): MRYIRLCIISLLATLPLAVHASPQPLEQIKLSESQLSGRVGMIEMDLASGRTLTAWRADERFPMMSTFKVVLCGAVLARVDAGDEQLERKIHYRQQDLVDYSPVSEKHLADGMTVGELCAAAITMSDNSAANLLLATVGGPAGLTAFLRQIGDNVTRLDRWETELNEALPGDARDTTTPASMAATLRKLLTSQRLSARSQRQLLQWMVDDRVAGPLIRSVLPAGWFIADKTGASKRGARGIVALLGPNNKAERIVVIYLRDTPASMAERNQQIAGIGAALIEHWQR
Sequence of Beta-lactamase (Enterobacter cloacae, UniProt P05364) (P05364 whole entry): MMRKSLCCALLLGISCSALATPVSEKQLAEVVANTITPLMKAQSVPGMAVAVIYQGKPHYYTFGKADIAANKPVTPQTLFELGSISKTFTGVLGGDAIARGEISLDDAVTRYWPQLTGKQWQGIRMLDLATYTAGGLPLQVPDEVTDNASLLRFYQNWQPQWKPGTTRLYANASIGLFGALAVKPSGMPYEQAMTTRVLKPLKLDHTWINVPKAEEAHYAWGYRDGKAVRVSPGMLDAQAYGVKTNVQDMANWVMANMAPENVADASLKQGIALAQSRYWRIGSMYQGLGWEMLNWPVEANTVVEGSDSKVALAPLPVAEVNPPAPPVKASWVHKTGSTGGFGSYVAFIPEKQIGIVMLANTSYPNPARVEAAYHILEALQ
Sequence of Beta-lactamase (Pseudomonas aeruginosa (strain ATCC 15692 / PAO1 / 1C / PRS 101 / LMG12228), UniProt P24735) (P24735 whole entry): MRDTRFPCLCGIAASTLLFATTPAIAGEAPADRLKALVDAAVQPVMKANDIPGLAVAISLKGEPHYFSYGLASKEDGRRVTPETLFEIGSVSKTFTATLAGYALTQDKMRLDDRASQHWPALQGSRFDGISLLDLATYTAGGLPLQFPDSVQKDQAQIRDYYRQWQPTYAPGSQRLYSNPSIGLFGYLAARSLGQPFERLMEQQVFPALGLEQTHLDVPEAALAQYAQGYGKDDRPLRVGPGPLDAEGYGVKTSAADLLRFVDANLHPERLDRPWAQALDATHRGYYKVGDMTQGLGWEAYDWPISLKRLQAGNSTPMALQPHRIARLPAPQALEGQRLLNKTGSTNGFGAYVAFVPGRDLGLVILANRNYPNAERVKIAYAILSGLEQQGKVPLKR

For the compound `CN(CC(=O)O)S(=O)(=O)c1ccc(N)cc1`, the inhibition in test [1] was -10%.

Turning to `O=S(=O)(NCB(O)O)c1ccccc1`, the inhibition in test [2] came out at 29%.

For the compound `N#Cc1cc(Br)cc(S(=O)(=O)NCC(=O)O)c1`, in test [1], the inhibition stood at 4%.

For the compound `O=C(CC(=O)C(F)(F)F)c1cccnc1`, the inhibition in test [1] worked out at 19%.

As to `O=C(O)C1CCN1S(=O)(=O)c1cccnc1` (configuration not stated), in test [1], the inhibition stood at 5%.

Consider `O=C(CC(=O)C(F)(F)F)c1ccccc1`, for which the inhibition in test [1] came to 18%.

For the compound `O=C(O)CNS(=O)(=O)c1ccc(CCCCC2CCNCC2)cc1`, the inhibition in test [1] is 18%.

Regarding `CC(C(=O)c1ccccc1)C(=O)C(F)(F)F` (configuration not stated), the inhibition in test [1] is 11%.

On to `O=C(CC(=O)C(F)(F)F)c1ccco1`, for which the inhibition in test [1] was 14%.

For the compound `CC(C(=O)c1cccs1)C(=O)C(F)(F)F` (configuration not stated), in test [1], the inhibition was determined as 11%.

For `O=S(=O)(NCB(O)O)c1cc2c(Cl)ccc(Cl)c2s1`, the IC50 in test [3] was 1100 nM; at Beta-lactamase SHV-5, 570 nM; against Beta-lactamase [4], 620 nM; against Beta-lactamase [5], 1200 nM; at Beta-lactamase [6], 5600 nM.

Consider `O=C(O)C1CCN1S(=O)(=O)c1cc(Cl)cc(Cl)c1` (configuration not stated), for which, in test [1], the inhibition stood at 9%.

For `O=C(O)C1CCCN1S(=O)(=O)c1ccccc1` (configuration not stated), in test [1], the inhibition worked out at 18%.

By inhibition is commonly meant the relative decrease from the control value, in per cent. For orientation: IC50 means the concentration that gives 50% inhibition. Higher therefore signals lower potency.

The values above are taken from ChEMBL document CHEMBL1156997, “4,7-Dichloro benzothien-2-yl sulfonylaminomethyl boronic acid: first boronic acid-derived beta-lactamase inhibitor with class A, C, and D activity” (Bioorg Med Chem Lett, 2010).
